Results published in patent publication US6017511A, “Glycopeptide-chelator conjugates” (Resolution Pharmaceuticals Inc., priority 1997, dated 2000).
≈ marks a conversion by molar mass, not a printed value.

Columns and labels:
E. coli (ATCC 25922) = assay: Filter binding assay of Tc-99m-labelled conjugates; details: Tc-99m-labelled conjugate, 37° C.
Protocol: E. coli (ATCC 25922)→Tryptic Soy Broth (TSB; Difco)
(§6) The cultures are then subcultured by removing 50-150 mL of the culture (O.D. dependent) and transferring to a 50 mL culture flask containing 20 mL broth. The subcultures are incubated at 37° C. or 30° C. until a growth concentration of 10^8 cfu (colony forming unit)/mL is reached. The concentration of each microorganism is determined by reading the optical density (O.D.) of the subculture using a spectrophotometer. The correlation between O.D. and growth of each microorganism has been previously established.
(§7) The flasks are incubated in a shaking water bath (200 rpm) at 37° C. […] There is also a background which is a flask containing broth with no microorganism and to which the radioactivity is also added. […] The filters are then assayed for radioactivity using a gamma well counter (Cobra II; Canberra Packard). […]

E. coli = assay: Antimicrobial assay; assay type: cell-based; details: up to 64 mg/mL
Protocol: (§1) Fresh cultures of bacteria are made from frozen stock stored at -80° C. To inoculate a fresh culture, the stock is removed from the freezer and continually kept frozen by being placed on dry ice. A small amount is removed using a sterile wooden applicator and transferred to a 50 mL culture flask, with screw cap, containing 10 mL of broth medium. The culture is incubated at 37° C. on an orbital shaker at 200 rpm overnight. The various bacteria and broth media used are:
(§2) The following day, the cultures are subcultured by transferring […] (O.D. dependent) to a new culture flask containing 20 mL broth. The subcultures are incubated at 37° C. on a shaker (200 rpm) and the bacteria are allowed to grow to mid-log phase. This is usually around 1×10^8 cfu/mL, determined by measuring the O.D. of the subculture. The correlation between O.D. and growth of each bacteria has been previously established.
(§3) Once the proper O.D. has been obtained, a 200- or 400-fold dilution is made of the subculture and 1 mL of this dilution is added to 1 mL of compound or antibiotic (i.e. 2-fold dilution) to give a final concentration of 0, 2, 4, 8, 16, 32, and 64 mg/mL compound or antibiotic. A 100-fold dilution is made from the control culture (0 mg/mL) and […] samples (i.e. 1000-fold dilution) are plated onto a TSA (tryptic soy agar; Difco). The cultures are incubated overnight at 37° C. on an orbital shaker (200 rpm). The TSA plates are also incubated overnight at 37° C.
(§4) The following day, the cultures are examined for growth or turbidity. […] samples (i.e. 10-fold dilution) of any of the cultures showing no turbidity, i.e. no growth, are plated onto TSA. The plates are incubated overnight at 37° C. and the number of cfu, if any, are counted. The control TSA plates are counted for the number of cfu for comparison with the culture plates.
(§5) MIC (minimal inhibitory concentration) is determined to be the lowest concentration at which growth of the bacteria is arrested. MBC (minimal bactericidal concentration) is determined to be the lowest concentration at which the bacteria are being killed.

P. aeruginosa = assay: Antimicrobial assay; assay type: cell-based; details: up to 64 mg/mL
Protocol: as §1, §2, §3, §4, §5

[1] = tested on: P. aeruginosa (ATCC PAO-PR1); assay: Filter binding assay of Tc-99m-labelled conjugates; details: Tc-99m-labelled conjugate, 37° C.
Protocol: Frozen cultures of bacteria are stored in vials at -80° C. until use. To inoculate a fresh bacterial culture, the vial of bacteria is removed from the freezer and continually kept frozen by being placed on dry ice. A small amount is removed using a sterile wooden applicator and transferred to a 50 mL culture flask, with screw cap, containing 10 mL of broth medium. The culture is incubated at 37° C. on a shaker at 200 rpm overnight*. The various microorganisms or compounds and broth media used are:
P. aeruginosa (ATCC PAO-PR1)→TSB
The cultures are then subcultured by removing […] of the culture (O.D. dependent) and transferring to a 50 mL culture flask containing 20 mL broth. The subcultures are incubated at 37° C. or 30° C. until a growth concentration of 10^8 cfu (colony forming unit)/mL is reached. The concentration of each microorganism is determined by reading the optical density (O.D.) of the subculture using a spectrophotometer. […]
Once the proper O.D. has been reached, 10 mL of the subculture is transferred to a 15 mL culture flask and 1×10^6 cpm of Tc-99m-labelled compound is added. […] There is also a background which is a flask containing broth with no microorganism and to which the radioactivity is also added. […] The filters are then assayed for radioactivity using a gamma well counter (Cobra II; Canberra Packard). […]

C. albicans (ATCC 14053) = assay: Filter binding assay of Tc-99m-labelled conjugates; details: Tc-99m-labelled conjugate
Protocol: (§8) *Note: C. albicans has a longer growth cycle than the other microorganisms and, therefore, the culture is incubated for 2 days. Also, the optimum growth temperature for C. albicans is 30° C.
C. albicans (ATCC 14053)→YM Broth (YMB; Difco)
The cultures are then subcultured by removing 50-150 mL of the culture (O.D. dependent) and transferring to a 50 mL culture flask containing 20 mL broth. […] The concentration of each microorganism is determined by reading the optical density (O.D.) of the subculture using a spectrophotometer.
as §7

S. aureus = assay: microbe, parasite or virus in culture; assay type: cell-based; details: for antimicrobial activity at the concentrations tested: S. aureus, up to 64 mg/mL
Protocol: as §1, §2, §3, §4, §5

[2] = Filter binding assay of Tc-99m-labelled conjugates; details: Tc-99m-labelled conjugate, zymosan suspension 50 mg/mL
Protocol: as §8
The flasks are incubated in a shaking water bath (200 rpm) at 37° C. A 10 mL zymosan suspension at 50 mg/mL and a 0.5% carrageenan mixture are also made. There is also a background which is a flask containing broth with no microorganism and to which the radioactivity is also added. At various time intervals, 200 mL of the cultures, suspensions, and the background is removed and filtered through 25 mm diam., 22 mm, cellulose acetate/nitrate, membrane filters (Millipore) using a Millipore vacuum manifold. The filters are washed 3× with 1 mL PBS. The filters are then assayed for radioactivity using a gamma well counter (Cobra II; Canberra Packard). The time intervals at which the cultures are sampled are: […]

S. aureus (ATCC 25923) = assay: Filter binding assay of Tc-99m-labelled conjugates; details: Tc-99m-labelled conjugate, 37° C.
Protocol: S. aureus (ATCC 25923)→TSB
as §6, §7

Molecule | Filter Binding Assay Results at 2 h, E. coli (E. coli (ATCC 25922)) | antimicrobial activity at the concentrations tested (E. coli) | antimicrobial activity at the concentrations tested (P. aeruginosa) | Filter Binding Assay Results at 2 h, P. aeruginosa [1] | Filter Binding Assay Results at 2 h, C. albicans (C. albicans (ATCC 14053)) | MBC (minimal bactericidal concentration) (S. aureus) | MIC (minimal inhibitory concentration) (S. aureus) | antimicrobial activity at the concentrations tested (S. aureus) | Filter Binding Assay Results at 2 h, Zymosan [2] | Filter Binding Assay Results at 2 h, S. aureus (S. aureus (ATCC 25923)) | MBC (S. aureus; Staphylococcus aureus, read-out: MBC (minimal bactericidal concentration))
CN[C@H](CC(C)C)C(=O)N[C@H]1C(=O)N[C@@H](CC(N)=O)C(=O)N[C@H]2C(=O)N[C@H]3C(=O)N[C@H](C(=O)N[C@H](C(=O)NCCCNC(=O)CNC(=O)C(CSCNC(C)=O)NC(=O)C(CO)NC(=O)CN(C)C)c4cc(O)cc(O)c4-c4cc3ccc4O)[C@H](O)c3ccc(c(Cl)c3)Oc3cc2cc(c3O[C@@H]2O[C@H](CO)[C@@H](O)[C@H](O)[C@H]2O[C@H]2C[C@](C)(N)[C@H](O)[C@H](C)O2)Oc2ccc(cc2Cl)[C@H]1O (stereo partly drawn) [(IA), DimethylGly-Ser-Cys(Acm)-Gly-NH(CH2)3 NH-Vancomycin] | 31% | antimicrobial against only S. aureus | antimicrobial against only S. aureus | 25% | 21% | 32 mg/mL (≈ 16.8 mM) | 16 to 32 mg/mL | antimicrobial against only S. aureus | 35% | 48% | –
DimethylGly-Ser-Cys(Acm)-(βAla)3 -Lys(N^ε -Vancomycin)-Gly-OH [(IB)] | 18% | – | – | – | 5% | – | – | – | 42% | 22% | –
CN[C@H](CC(C)C)C(=O)N[C@H]1C(=O)N[C@@H](CC(N)=O)C(=O)N[C@H]2C(=O)N[C@H]3C(=O)N[C@H](C(=O)N[C@H](C(=O)O)c4cc(O)cc(O)c4-c4cc3ccc4O)[C@H](O)c3ccc(c(Cl)c3)Oc3cc2cc(c3O[C@@H]2O[C@H](CO)[C@@H](O)[C@H](O)[C@H]2O[C@H]2C[C@](C)(N)[C@H](O)[C@H](C)O2)Oc2ccc(cc2Cl)[C@H]1O [Vancomycin, reference compound] | – | antimicrobial against only S. aureus | antimicrobial against only S. aureus | – | – | – | – | antimicrobial against only S. aureus | – | – | 32 to 64 mg/mL (≈ 22.1 to 44.2 mM)
